One experiment concerns Trypanosoma cruzi. The experiment in a line: Antitrypanosomal activity against Trypanosoma cruzi. Format: functional, organism-based.
The next experiment deals with Leishmania donovani. The experiment in a line: Antileishmanial activity against Leishmania donovani. Format: functional, organism-based.
The subject of another experiment is MCF7. The experiment in a line: Cytotoxicity against human MCF7 cells. The format is functional, cell-based.
Experiment [1] concerns NCI-H460. The experiment in a line: Cytotoxicity against human NCI-H460. Format: functional, cell-based.
In a further experiment the test system is Vero. The experiment in a line: Cytotoxicity against […] Vero cells by MTT assay. Format: cell-based, Homo sapiens. The conditions noted are these: Chlorocebus sabaeus.
Experiment [2] concerns NCI-H460. The experiment in a line: Cytotoxicity against human NCI-H460 at 20 ug/ml. The format is functional.

Molecules are shown by their SMILES.

In general, IC50 refers to the concentration that inhibits the measured activity by half. Lower therefore signals inhibition by little substance. Consider `CCCCC/C=C\C/C=C\CCCCCCCc1cc(O)cc(O)c1`, for which the IC50 in the experiment on Trypanosoma cruzi came out at 30 µM; with Leishmania donovani it was 0.6 µM; in the experiment on MCF7, 8.7 µM; in the experiment on NCI-H460 [1] it was 8.7 µM; in the experiment with Vero, 148 µM.
`CCCCC/C=C\C/C=C\CCCCCCCc1cc(OC(C)=O)cc(OC(C)=O)c1`: the results for the IC50 in the experiment with Trypanosoma cruzi and with Vero were 117 µM and 124 µM, respectively.
`C[C@@H]1[C@H](O)[C@@H](C)/C=C/C=C/C=C/C=C/C=C/C=C/C=C/[C@H](O[C@@H]2O[C@H](C)[C@@H](O)[C@H](N)[C@@H]2O)C[C@@H]2O[C@](O)(C[C@@H](O)C[C@@H](O)[C@H](O)CC[C@@H](O)C[C@@H](O)CC(=O)O[C@H]1C)C[C@H](O)[C@H]2C(=O)O` [AMPHOTERICIN B] displayed an IC50 in the experiment with Leishmania donovani of 0.09 µM.
Consider `CC/C=C\C/C=C\C/C=C\CCCCCCCc1cc(O)cc(O)c1`, for which the IC50 in the experiment on Trypanosoma cruzi worked out at 25 µM; with Leishmania donovani it was 0.6 µM; in the experiment with MCF7 it was 8.7 µM; with NCI-H460 [1], 8.7 µM; in the experiment on Vero, 104 µM.
Broadly, the inhibition is the change of the read-out against control, counted positive when it falls. A high value points to strong suppression. As to `CC/C=C\C[C@@H](O)CC/C=C\CCCCCCCc1cc(O)cc(O)c1`, the IC50 was 22 µM in the experiment on Trypanosoma cruzi; 3 µM in the experiment with Leishmania donovani; 22 µM in the experiment with MCF7; above 10 µM in the experiment with NCI-H460 [1]; 30 µM in the experiment on Vero. In the experiment on NCI-H460 [2], this compound registered an inhibition at 20 µg/mL below 50%.
Consider `CCCCCC[C@@H](C/C=C\CCCCCCCc1cc(OC(C)=O)cc(OC(C)=O)c1)OC(C)=O`, for which the IC50 with Trypanosoma cruzi came out at 102 µM; with Vero, 75 µM.
On the same counts, the results for `CC/C=C\C/C=C\C/C=C\CCCCCCCc1cc(OC(C)=O)cc(OC(C)=O)c1` are 117 µM and 138 µM.
The compound `CC1CS(=O)(=O)CCN1/N=C/c1ccc([N+](=O)[O-])o1` (stereo unspecified) [NIFURTIMOX] gave a 50% inhibitory concentration (IC50) with Trypanosoma cruzi of 6 µM.
For `CC/C=C\C[C@H](CC/C=C\CCCCCCCc1cc(OC(C)=O)cc(OC(C)=O)c1)OC(C)=O`, the half-inhibitory concentration (IC50) in the experiment on Trypanosoma cruzi is 107 µM; in the experiment with Vero, 82 µM.
As for `CCCCCC[C@H](O)C/C=C\CCCCCCCc1cc(O)cc(O)c1`, the IC50 is 138 µM in the experiment on Trypanosoma cruzi; 7 µM with Leishmania donovani; 14 µM in the experiment on MCF7; 16 µM in the experiment with NCI-H460 [1]; 76 µM in the experiment on Vero.

These data come from ChEMBL document CHEMBL1141247, “Hydroxyalkenylresorcinols from Stylogyne turbacensis” (J Nat Prod, 2007).
